Laboratory results taken from patent US10555894B2, “Plant extract comprising sucrose esters as an active agent for use in cosmetic, dermatological or nutricosmetic composition” (COSMO INTERNATIONAL INGREDIENTS, priority 2014, dated 2020).

What was measured:
[1] = tested on: normal human epidermal melanocytes (NHEM); assay: Synthesis of melanin in melanocytes stimulated by L-tyrosine; format: cell-based; conditions: L-tyrosine 1 mM, 10 days, tested at 5 μg/ml
Procedure: The depigmentation effect potential of the Uchuva extract has been researched in a model of normal human epidermal melanocytes (NHEM). The effect of the Uchuva extract on the synthesis of melanin has been evaluated after ten incubation days under conditions stimulated by L-tyrosine. In this test, the reference inhibitory molecule is lipoic acid. Its action mechanism calls for an inhibition of the expression of the MITF transcription factor (microphthalmia-associated transcription factor). This transcription factor is the major regulator of the expression of tyrosinase and its inhibition results in the reduction of the expression of tyrosinase, enzyme involved in the melanin synthesis. The melanocytes have been sown in 24 wells plate and cultivated in the culture medium for 24 hours. […] After incubation, the melanin has been extracted by lysis of the cells with a solution of NaOH 0.5 N. The optical density (OD) of the samples has been measured at 405 nm, then the quantity of melanin has been determined in comparison with a range of exogenous melanin (melanin curve including standards from 0.39 to 100 μg/ml). […] After dissociation of the cells and solubilisation of the formazan by addition of DMSO, the optical density (OD), which represents the number of living cells and their metabolic activity, has been measured with a 540 nm microplate reader (VERSAmax, Molecular Devices).

[2] = tested on: coding genes for differentiation proteins of the keratinocyte in normal human epidermal keratinocytes (NHEK); assay: Transcriptomic analysis (Affymetrix U219 chip) of treated keratinocytes; format: cell-based; conditions: 0.8 μg/ml; for expression of coding genes for differentiation proteins of the keratinocyte: KRT1, IVL, DSG1, DSC1, SPRR2A, SPRR2E, SPRR1A, SPRR2D, CALML5, SBSN and KRTDAP: 4 or 24 hours; for effect on the differentiation of the keratinocytes: deduced from gene expression
Procedure: (§1) The effects of fractions I, II and […] have been researched on by transcriptomic analysis on models of normal human epidermal keratinocytes and human dermal fibroblasts. This global transcript expression analysis has been carried out after 4 to 24 hours of incubation by using the Affymetrix GeneAtlas™ platform and the U219 “full human transcriptome” chip containing 36,000 transcripts and variants.
(§2) • Cellular type: Normal human epidermal keratinocytes (NHEK) • Culture conditions: 37° C., 5% CO2 • Culture medium: Keratinocyte-SFM supplemented with Epidermal Growth Factor (EGF) 0.25 ng/ml Pituitary Extract (PE) 25 μg/ml Gentamycin 25 μg/ml • Test medium: Keratinocyte-SFM supplemented with Gentamycin 25 μg/ml Normal Human Dermal Fibroblasts (NHDF) • Cellular type: Normal human dermal fibroblasts (NHDF), • Culture conditions: 37° C., 5% CO2 • Culture medium: DMEM supplemented with • L-glutamine 2 mM • Penicillin 50 U/ml—Streptomycin 50 μg/ml • Calf foetal serum (CFS) 10% • Test medium: DMEM supplemented with • L-glutamine 2 mM • Penicillin 50 U/ml—Streptomycin 50 μg/ml • CFS 1% 2. Tested Compounds
The cells have been introduced and cultivated in the culture medium for 24 hours and then incubated in their test medium for another 24 hours. Then, the medium has been replaced by the test medium containing or not containing (control) the test compounds and the cells have been incubated for 4 or 24 hours. All the conditions have been completed in n=3.
At the end of the incubation, the culture supernatants have been removed and the cell layers have been rinsed with a PBS solution. The plates have been immediately dry frozen at −80° C.
The total RNA of each sample have been extracted using TriPure Isolation Reagent® as per the protocol recommended by the supplier. The quantity and quality of the RNA have been evaluated by capillary electrophoresis (Bioanalyzer 2100, Agilent).
The amplification of the RNA and the synthesis of the biotinylated RNA analogues (RNAa) have been carried out using the “GeneChip 3'IVT Express” kit (Affymetrix®). The single-strand complementary DNA (cDNA) have been synthesised by reverse transcription of the total RNA in the presence of oligo(dT). By action of a DNA polymerase, a double-stranded cDNA (ds DNA) has been synthesised. Biotinylated RNA have then been synthesised from the cDNA and in the presence of biotinylated ribonucleotide analogues. After a purification stage on magnetic beads, which enables to remove salts, enzymes and free nucleotides, the biotinylated RNA have been hydrolysed into fragments from 35 to 200 nucleotides with a peak at 100-120 nucleotides (fragmented targets). […]

[3] = tested on: coding gene for fibrillin 1 (FBN1) in normal human dermal fibroblasts (NHDF); assay: Transcriptomic analysis (Affymetrix U219 chip) of treated fibroblasts; format: cell-based; conditions: 0.8 μg/ml
Procedure: as §1
as §2, with “Compounds […]” for “Compounds”
The total RNA of each sample have been extracted using TriPure Isolation Reagent® as per the protocol recommended by the supplier. The quantity and quality of the RNA have been evaluated by capillary electrophoresis (Bioanalyzer 2100, Agilent). […]

Collagen IV = assay: Expression of Collagen IV in fibroblasts by immunocytology, fluorescence scoring; format: cell-based, human; conditions: positive control element, 48 hours
Procedure: The two concentrations of 4.10-5% and 8.10-5% of the Uchuva extract have been tested.
The cells are introduced on D0, in Millicell 8 wells slides, at a rate of 4.103 cells per ml in 400 μl of complete medium. They are treated on D1 for 48 hours with culture in a complete medium. The concentrations of the active to be tested are expressed in % of the extract. The stock solution of the extract has been prepared in DMSO with 20% concentration (w/v). The first dilution has been made to 1/1000th. The following dilutions have been made while maintaining the final DMSO concentration at 0.1%. After 48 hours, the cells are fixed by an alcohol/acid mixture. Then, the cells are marked using an anti-collagen IV antibody (Rockland) diluted in PBS+BSA/tween to 1/50 for 1 hour. The slides are then rinsed twice by PBS. The revelation of the specific marking is done using an FITC coupled secondary antibody (Santa-Cruz) diluted in PBS+BSA/tween to 1/100 for 1 hour. The slides are then rinsed twice by PBS and put between the slide and the cover glass using the RotiMount Fluocare+DAPI (Roth) mounting fluid.
Photos in green and blue are taken using a DP72 camera (Olympus, Japan) connected to a BX-60 epifluorescence microscope (Olympus, Japan).
The photos have been observed by two readers and a scoring of the intensity of fluorescence has done on a linear scale from 0 (no marking) to 4 (very high marking). […]

Structure (SMILES)	expression of coding genes for differentiation proteins of the keratinocyte: KRT1, IVL, DSG1, DSC1, SPRR2A, SPRR2E, SPRR1A, SPRR2D, CALML5, SBSN and KRTDAP [2]	effect on the differentiation of the keratinocytes [2]	also measured
O=C(O)CCCC[C@@H]1CCSS1 (racemic) [lipoic acid]	–	–	inhibition of the synthesis of melanin [1]: 108%
CCCCCCCCCC(=O)O[C@H]1[C@@H](O[C@]2(CO)O[C@H](CO)[C@@H](O)[C@@H]2OC(=O)C(C)C)O[C@H](CO)[C@@H](OC(=O)C(C)C)[C@@H]1OC(=O)C(C)C [Fraction I, 3-O-(2-methyl-1-oxopropyl)-β-D-fructofuranosyl (1→2)-3,4-bis(2-methylpropanoate)-2-decanoate-α-D-glucopyranoside]	expression inhibitions	anti differentiating effect	–
CCCCCCCCCC(=O)O[C@H]1[C@@H](O[C@]2(CO)O[C@H](CO)[C@@H](O)[C@@H]2OC(=O)CC(C)C)O[C@H](CO)[C@@H](OC(=O)C(C)C)[C@@H]1OC(=O)C(C)C [Fraction II, 3-O-(3-methyl-1-oxobutyl)-β-D-fructofuranosyl (1→2)-3,4-bis(2-methylpropanoate)-2-decanoate-α-D-glucopyranoside]	expression inhibitions	anti differentiating effect	expression of the coding gene for fibrillin 1 (FBN1), fold change ([3]; 4 hours): 3.27 X; expression of the coding gene for fibrillin 1 (FBN1), fold change ([3]; 24 hours): 8.24 X
C[C@H](O)[C@H](O)[C@@H](O)[C@@H](O)C=O [rhamnose]	–	–	increase in expression of Collagen IV, amplitude compared with the Uchuva extract (Collagen IV): comparable
